Measured values: ChEMBL document CHEMBL3301546, “MMV Malaria Box yeast growth screening”

What was measured:
Assay type in all cases: functional
Saccharomyces cerevisiae [1] = experiment: (§1) MMV: Growth assays were conducted using the prototrophic S. cerevisiae strain JHY222. Each MMV compound (0.1 mM) was tested in minimal media containing dextrose as a carbon source (Yeast Nitrogen Base, Dextrose; YNBD). The growth rate in the presence of each MMV compound was calculated as follows: (i) the first 10 OD readings were averaged and subtracted from all OD readings of the corresponding curve to set the baseline of the growth curve to zero, and (ii) the area under the curve (AUC) was then calculated as the sum of all OD readings. […] A relative growth value was calculated as follows: AUC(DRUG) - AUC(DMSO)/AUC(DMSO); where AUC(DMSO) represents growth measured in a DMSO control well that was on the same microtiter plate of the drug-treated culture.
Saccharomyces cerevisiae [2] = experiment: as §1, with “ethanol and glycerol” for “dextrose”, “as” for “as a”, “sources” for “source”, “Ethanol, Glycerol; YNBEG).” for “Dextrose; YNBD).”
Saccharomyces cerevisiae [3] = experiment: as §1, with “rich” for “minimal”, “Extract, Peptone,” for “Nitrogen Base,”, “YPD).” for “YNBD).”

Row | SMILES | Relative Growth (Saccharomyces cerevisiae [1]) | Relative Growth (Saccharomyces cerevisiae [2]) | Relative Growth (Saccharomyces cerevisiae [3])
1 | CCCCc1ccc(NS(=O)(=O)c2cc3c4c(c2)CCN4C(=O)CC3)cc1 | -0.0346 | 0.0701 | -0.0323
2 | CCOc1ccccc1CNC(=O)C1c2ccccc2C(=O)N(CC(C)C)C1c1cccs1 (stereo not given) | 0.0472 | -0.1153 | -0.0674
3 | COc1ccccc1N1C(=N)SC(=Cc2ccc(OCc3ccccc3F)cc2)C1=O | 0.0037 | -0.0753 | 0.0323
4 | Cc1cc(N2CCCC2)nc(Nc2ccc(NC(=O)CCc3ccccc3)cc2)n1 | -0.0661 | -0.093 | -0.047
5 | Cn1c(C(=O)c2cccc3ccccc23)nc2ccccc21 | 0.0393 | 0.1204 | -0.0135
6 | COc1ccc(N2CCN(C(CNC(=O)CC(C)(C)C)c3ccc4c(c3)OCO4)CC2)cc1 (stereo not given) | -0.0787 | -0.1806 | 0.0032
7 | Cc1cccc(-n2ncc3c(O)nc(-n4nc(C)cc4NC(=O)c4cc5ccccc5o4)nc32)c1 | -0.2202 | -0.0822 | -0.0284
8 | C=CCc1c(C)nc2ccccc2c1O | -0.0056 | 0.1025 | -0.0062
9 | OC(CNCC1CCCO1)Cn1c2ccc(Cl)cc2c2cc(Cl)ccc21 (stereo not given) | 0.0307 | 0.0106 | -0.0004
10 | COCCNC(=O)c1ccc(OC2CCN(Cc3ccc(F)c(F)c3)CC2)c(Cl)c1 | -0.0136 | 0.0235 | 0.1615
11 | CN(C)c1ccc(N2C(N)=NC(N)=NC2(C)C)cc1 | 0.0279 | 0.007 | -0.0542
12 | CC(C)(C)c1ccc(O)c(CNC2CCCCC2)c1 | 0.1031 | -0.0737 | -0.013
13 | COc1ccc(-c2c(C)nn3c(N)c(C#N)cnc23)cc1OC | -0.0079 | -0.7097 | -0.0311
14 | Cc1ccc(Cl)cc1N1CCN(CCCNC(=O)C2CCN(c3nc4ccccc4[nH]3)CC2)CC1 | 0.0248 | 0.0403 | -0.0122
15 | CC1(c2ccccc2)Nc2ccccc2-c2nc3ccccc3n21 (stereo not given) | -0.2999 | -0.5975 | -0.9988
16 | Cc1cc(Nc2ccc(Cl)cc2)n2nc(C(F)(F)F)nc2n1 | 0.0221 | -0.0099 | 0.0103
17 | CCOc1ccc2nc(C)cc(Nc3ccc(Br)cc3)c2c1 | -0.9176 | 0.014 | 0.0466
18 | CCOC(=O)C1=C(C)N=c2sc(=Cc3cc(Cl)ccc3O)c(=O)n2C1c1ccc(OC)cc1 (stereo not given) | 0.1077 | 0.0816 | -0.1268
19 | Fc1ccc2[nH]c3c(NCCCN4CCOCC4)ncnc3c2c1 | 0.0125 | 0.0735 | -0.0189
20 | COc1ccccc1NC1=C(N2CCCCC2)C(=O)c2ccccc2C1=O | 0.0574 | 0.1747 | -0.0045
21 | COc1cccc(Cn2c(Oc3ccccc3)nc3c2c(=O)n(C)c(=O)n3C)c1 | -0.1115 | -0.4904 | -0.0536
22 | CCOc1ccccc1CN1CCc2nc3cc(C(C)(C)C)nn3c(O)c2C1 | -0.2912 | -0.4424 | -0.6117
23 | Cc1sc(NC(=O)c2ccco2)c(C(c2cccnc2)N2CCC(Cc3ccccc3)CC2)c1C (stereo not given) | 0.0125 | 0.0498 | -0.0153
24 | CCCn1c(=N)c(C(=O)NC2CCCCC2)cc2c(=O)n3cccc(C)c3nc21 | 0.1028 | 0.0799 | -0.0177
25 | Cc1cc(NC(=O)c2ccc(-c3ccccc3)cc2)no1 | 0.0468 | 0.0052 | -0.0826
26 | CCN(CC)CCNc1ncnc2c1[nH]c1ccc(Cl)cc12 | 0.0885 | 0.0317 | -0.0494
27 | CC1=C(CC(=O)c2cccc([N+](=O)[O-])c2)C(=O)c2ccccc2C1=O | -1.0109 | -1.022 | -0.9318
28 | COc1ccc(C(=O)C2CC2c2ccc(Cl)cc2)cc1 (stereo not given) | -0.0877 | -0.181 | -0.0484

Row | SMILES | Relative Growth (Saccharomyces cerevisiae [1]) | Relative Growth (Saccharomyces cerevisiae [2]) | Relative Growth (Saccharomyces cerevisiae [3])
29 | CCOc1c(Br)cc(C2C(C(=O)OC)=CN(C)C=C2C(=O)OC)cc1OC | 0.0663 | -0.0572 | -0.0344
30 | Cc1ccc(NC(=O)Nc2cccc(Cl)c2)cc1F | 0.0155 | 0.0189 | -0.0033
31 | CN1CCN(c2c3c(c(C#N)c4nc5ccccc5n24)CCC3)CC1 | 0.2469 | -0.4878 | -0.0644
32 | Cc1ccc2nc(C)cc(Nc3cccc(C(F)(F)F)c3)c2c1.Cl | -0.0826 | -0.1571 | -0.0219
33 | Oc1ccc(-c2nc(-c3ccc4oc5ccc(-c6[nH]c(-c7ccc(O)cc7)nc6-c6ccccc6)cc5c4c3)c(-c3ccccc3)[nH]2)cc1 | 0.0106 | -0.1734 | -0.979
34 | COc1ccc(-c2nc3cc(Cc4ccc5[nH]c(-c6ccc(OC)cc6)nc5c4)ccc3[nH]2)cc1 | 0.0862 | 0.0241 | -0.0264
35 | COc1ccc(CCN2CCC(CN(C)Cc3cnn(-c4ccccc4)c3)CC2)cc1 | -0.2117 | -0.844 | 0.0613
36 | O=C(Nc1ccccc1O)c1ccc(-c2ccc(Cl)cc2Cl)o1 | 0.0136 | -0.098 | 0.0802
37 | OCCNc1nc(Nc2ccc(Cl)c(Cl)c2)nc2ccccc12 | -0.1441 | 0.0602 | 0.0231
38 | O=C(CCc1ccccc1)c1ccccc1OCC(O)CN1CCCCC1 (stereo not given) | 0.0209 | -0.1402 | -0.6663
39 | O=C1c2ccccc2C2=Nc3ccccc3SC(c3cccc(F)c3)C12 (stereo not given) | -0.0716 | -0.2808 | 0.0574
40 | Cc1sc2ncnc(Sc3nc4ccccc4[nH]3)c2c1C | 0.0477 | 0.0545 | 0.0241
41 | CCC(O)c1ccc(Br)cc1NC(=O)c1cccc(Cl)c1 (stereo not given) | 0.0885 | 0.102 | 0.0228
42 | CC1CCCCN1CCCNC(=O)c1ccc2c(c1)sc1nc(-c3ccc(F)cc3)cn12 (stereo not given) | 0.1056 | -0.161 | 0.083
43 | CCN(CC)CCNc1ccnc2cc(Cl)ccc12 | 0.0543 | 0.0209 | -0.0501
44 | Cc1ccc(N2C(=O)C3C(C2=O)C2(c4ccccc4)C(=O)C3(c3ccccc3)C(c3ccccc3)=C2c2ccccc2)cc1 (stereo not given) | 0.0552 | 0.0311 | 0.0561
45 | Cc1ccc(-c2cc3c(SCC(=O)Nc4cc(C(F)(F)F)ccc4Cl)nccn3n2)cc1 | 0.117 | -0.0739 | 0.0079
46 | CCOC(=O)c1cnc2c(C)cccc2c1Nc1ccc(C(C)=O)cc1 | -0.0028 | -0.0453 | -0.0046
47 | Nc1nc(Nc2cccc(F)c2)nc2ccccc12 | -0.0889 | -0.012 | -0.0359
48 | CCCN(CCC)CC(O)COc1ccccc1C(=O)Nc1ccccc1 (stereo not given) | 0.0118 | 0.0655 | -0.0395
49 | COc1ccc(-c2cc(=O)oc3c4c(ccc23)OCN(Cc2ccc(F)cc2)C4)cc1 | 0.0043 | -0.013 | 0.0536
50 | COc1ccccc1C(=O)ON=C(N)Cc1cccc2ccccc12 | 0.0083 | 0.0174 | 0.0139
51 | COc1ccc(Nc2cc(C)nc(NCc3ccccc3)n2)cc1 | 0.0189 | 0.0325 | 0.0201
52 | CC(C)(C)c1ccc(C2CC3=Nc4ccccc4N(C(=O)c4ccccc4Cl)C(c4ccc(F)cc4)C3=C(O)C2)cc1 (stereo not given) | -0.0515 | -0.3538 | -0.0874
53 | CN(C)c1ccc(N=Cc2ccc(N3CCOCC3)cc2)cc1 | 0.0616 | 0.068 | -0.0781
54 | COc1cc2cc(C(=O)Nc3ccccc3)c(N)nc2cc1OC | -0.0986 | 0.0392 | -1.0109
55 | COc1ccc2c(c1)OC(O)(C(F)(F)C(F)(F)F)CC2=O (stereo not given) | 0.1423 | -0.103 | 0.0151
